Laboratory results from the CheMixHub viscosity set.
Values joined by “and” are separate entries in the source; they are usually repeats but may differ in a detail not shown here. Identical values can stand only once.

Assays:
[1] = xn = mol fraction of the nth substance listed

CC12CC3CC(C1)CC(C)(C3)C2
100 kPa
Settings	viscosity
293.15 K	3.779 mPa·s and 3.778 mPa·s
298.15 K	3.371 mPa·s and 3.365 mPa·s
303.15 K	3.027 mPa·s and 3.017 mPa·s
308.15 K	2.747 mPa·s
313.15 K	2.475 mPa·s
318.15 K	2.262 mPa·s
323.15 K	2.05 mPa·s

CC1CCCC(O)C1 (stereo unspecified)
Settings	viscosity [mPa·s]
293.15 K, 101 kPa	22.8

CCC(C)(C)OC
100 kPa
Settings	viscosity [mPa·s]
293.15 K	0.439
303.15 K	0.415
313.15 K	0.369
323.15 K	0.335

CCCCCCCCO
viscosity
Settings	293.15 K	298 K	298.15 K	303.15 K	308 K	308.15 K	313 K	313.15 K	318.15 K	323.15 K
100 kPa	9.045 mPa·s and 9.2 mPa·s and 8.98 mPa·s	7.614 mPa·s	7.546 mPa·s and 7.67 mPa·s and 7.56 mPa·s	6.337 mPa·s and 6.35 mPa·s	–	–	–	4.564 mPa·s and 4.61 mPa·s and 4.585 mPa·s	–	3.365 mPa·s and 3.38 mPa·s
101 kPa	8.309 mPa·s and 9.185 mPa·s	–	7.33 mPa·s and 7.3 mPa·s	–	5.228 mPa·s	–	4.464 mPa·s	4.199 mPa·s and 4.691 mPa·s and 4.58 mPa·s	–	3.464 mPa·s and 3.369 mPa·s
101.3 kPa	9.273 mPa·s and 9.183 mPa·s	–	7.598 mPa·s and 7.84 mPa·s	6.102 mPa·s and 6.42 mPa·s	–	5.403 mPa·s	–	4.413 mPa·s and 4.661 mPa·s	4.051 mPa·s and 3.701 mPa·s	2.84 mPa·s
101.33 kPa	–	–	–	–	–	5.352 mPa·s	–	–	–	3.361 mPa·s and 3.361 mPa·s

CCn1cc[n+](C)c1.O=S(=O)([N-]S(=O)(=O)C(F)(F)F)C(F)(F)F
Settings	viscosity
293.15 K, 100 kPa	41.6 mPa·s and 39.2 mPa·s
297.55 K, 101 kPa	36.3 mPa·s
298 K, 100 kPa	29.67 mPa·s
298.15 K, 100 kPa	33.9 mPa·s and 32.55 mPa·s
298.15 K, 101 kPa	30.72 mPa·s and 32.3 mPa·s
298.15 K, 101.3 kPa	32.42 mPa·s
303 K, 100 kPa	24.82 mPa·s
303.15 K, 100 kPa	27.68 mPa·s and 27.4 mPa·s
303.15 K, 101.3 kPa	28.6 mPa·s
308 K, 100 kPa	20.99 mPa·s
308.15 K, 101.3 kPa	23.19 mPa·s
313 K, 100 kPa	17.97 mPa·s
313.15 K, 100 kPa	20.16 mPa·s and 19.1 mPa·s and 20.1 mPa·s
313.15 K, 101 kPa	19.9 mPa·s and 19.26 mPa·s
313.15 K, 101.3 kPa	19.94 mPa·s
318 K, 100 kPa	15.57 mPa·s
318.15 K, 101.3 kPa	17.37 mPa·s
323 K, 100 kPa	13.28 mPa·s
323.15 K, 100 kPa	15.34 mPa·s and 14.4 mPa·s and 15.3 mPa·s
323.15 K, 101.3 kPa	15.34 mPa·s

NCCOCCO + O
viscosity [mPa·s], [1], 101.33 kPa
Settings	298.15 K	313.15 K	323.15 K
x1 = 0.0552	2.4	1.452	1.16
x1 = 0.1002	3.874	2.419	1.857
x1 = 0.1447	6.344	3.715	2.737
x1 = 0.2249	11.4	6.182	4.438
x1 = 0.2997	16.21	8.343	5.773
x1 = 0.3995	21.35	10.7	7.293
x1 = 0.5392	25.2	12.28	8.273
x1 = 0.6075	26.8	13.19	8.903
x1 = 0.7021	27.72	13.65	9.182
x1 = 0.8071	27.7	13.76	9.315
x1 = 0.9024	27.4	13.65	9.257

O=S(=O)([N-]S(=O)(=O)C(F)(F)F)C(F)(F)F.OCCNCCO.[Li+] + O
viscosity [mPa·s], [1], 101 kPa
Settings	313.15 K	318.15 K	323.15 K
x1 = 0.03	2.3	1.83	1.52
x1 = 0.0601	4.57	3.78	3.28
x1 = 0.0999	13.16	10.06	7.95
x1 = 0.1922	61.51	40.94	28.08
x1 = 0.2941	156.6	98.53	65.24
x1 = 0.4028	299.2	187.7	123.7
x1 = 0.4989	451.2	285	192.2
x1 = 0.5999	629.9	408.1	281.1
x1 = 0.7015	835.5	557.5	393.6
x1 = 0.803	1078	736.7	530
x1 = 0.9011	1370	952.3	694.7

[Cl-].[Rb+] + O
[1], 310.15 K, 101 kPa
Settings	viscosity [mPa·s]
x1 = 0.000184	0.6947
x1 = 0.000842	0.6943
x1 = 0.002695	0.6937
x1 = 0.003302	0.6937
x1 = 0.003679	0.6938
x1 = 0.005197	0.6944
x1 = 0.005988	0.695

CC(C)(C)N + O=C1CCCCC1
[1], 298.15 K, 101 kPa
Settings	viscosity [mPa·s]
x2 = 0.0765	0.525
x2 = 0.157	0.607
x2 = 0.2421	0.702
x2 = 0.3319	0.787
x2 = 0.427	0.893
x2 = 0.5278	1.021
x2 = 0.6349	1.172
x2 = 0.7488	1.373
x2 = 0.8702	1.644

CCN(CC)CCO.Cl + OCC(O)CO
[1], 101 kPa, x1 = 0.333
Settings	viscosity [mPa·s]
296.97 K	433.4
298.15 K	513.1
302.02 K	339.9
303.15 K	351.5
306.82 K	263.5
308.15 K	251.3
312.13 K	195.5
313.15 K	182.9
317.31 K	153
318.15 K	138
322.61 K	110.5
323.15 K	104.2

BrC(Br)Br + OCCCl
viscosity [mPa·s], [1], 101.3 kPa
Settings	x1 = 0.099	x1 = 0.198	x1 = 0.301	x1 = 0.396	x1 = 0.498	x1 = 0.595	x1 = 0.702	x1 = 0.801	x1 = 0.896
298.15 K	2.878	2.817	2.587	2.446	2.3	2.179	2.067	1.97	1.915
303.15 K	2.532	2.487	2.297	2.191	2.08	1.982	1.89	1.825	1.779
308.15 K	2.237	2.21	2.055	1.974	1.884	1.814	1.746	1.694	1.666

CCN(CC)CCO.Cl + OCCO
viscosity [mPa·s], [1], 101 kPa
Settings	293.15 K	298.15 K	303.15 K	308.15 K	313.15 K	318.15 K	323.15 K
x1 = 0.25	37.6	–	29.6	–	23.6	–	19.1
x1 = 0.333	–	50.45	40.68	32.04	26.28	21.97	18.51

CCN(CC)CCO.Cl + OCCOCCO
[1], 101 kPa, x2 = 0.75
Settings	viscosity [mPa·s]
293.15 K	56.09
303.15 K	50.09
313.15 K	35.93
323.15 K	25.49

C=Cc1ccccc1 + c1ccccc1
viscosity [mPa·s], [1], 101 kPa
Settings	x2 = 0.1362	x2 = 0.2498	x2 = 0.3047	x2 = 0.4109	x2 = 0.5207	x2 = 0.5834	x2 = 0.7114	x2 = 0.7924	x2 = 0.8831
298.15 K	0.672	0.654	0.645	0.633	0.623	0.618	0.608	0.605	0.604
303.15 K	0.629	0.61	0.6	0.589	0.577	0.57	0.56	0.556	0.555
308.15 K	0.59	0.57	0.56	0.548	0.537	0.53	0.52	0.515	0.514
313.15 K	0.54	0.518	0.51	0.499	0.487	0.48	0.47	0.466	0.465

CC1CCCC(O)C1 (stereo unspecified) + c1ccccc1
[1], 293.15 K, 101 kPa
Settings	viscosity
x2 = 0.3	4.2 mPa·s
x2 = 0.5	2.1 mPa·s
x2 = 0.6	1.6 mPa·s
x2 = 0.7	1.5 mPa·s
x2 = 0.8	1.2 mPa·s and 1.1 mPa·s

CCC(C)(C)OC + c1ccccc1
viscosity [mPa·s], [1], 100 kPa
Settings	x1 = 0.051	x1 = 0.1986	x1 = 0.2998	x1 = 0.3995	x1 = 0.4992	x1 = 0.5905	x1 = 0.6974	x1 = 0.8012	x1 = 0.8948	x1 = 0.9496
293.15 K	0.623	0.579	0.553	0.53	0.51	0.493	0.475	0.46	0.451	0.445
303.15 K	0.547	0.513	0.493	0.475	0.461	0.449	0.436	0.427	0.422	0.418
313.15 K	0.478	0.447	0.43	0.414	0.402	0.392	0.381	0.375	0.372	0.37

CCCCCCCCO + c1ccccc1
viscosity [mPa·s], [1]
Settings	293.15 K	298.15 K	303.15 K	313.15 K	323.15 K
100 kPa, x2 = 0.0834	7.415	–	5.248	3.685	2.768
100 kPa, x2 = 0.1711	6.045	–	4.294	2.932	2.235
100 kPa, x2 = 0.2512	5.033	–	3.532	2.393	1.821
100 kPa, x2 = 0.3602	3.894	–	2.682	1.807	1.365
100 kPa, x2 = 0.4552	3.069	–	2.085	1.4	1.062
100 kPa, x2 = 0.5612	2.333	–	1.545	1.076	0.818
100 kPa, x2 = 0.6483	1.824	–	1.236	0.904	0.7
100 kPa, x2 = 0.7524	1.334	–	0.957	0.736	0.594
100 kPa, x2 = 0.8537	0.975	–	0.736	0.608	0.516
100 kPa, x2 = 0.9502	0.748	–	0.612	0.525	0.455
101.33 kPa, x1 = 0.2	–	0.863	–	–	0.57
